Like-named read-outs stand apart in the source and are kept apart here.
Molecular target: T1, APOL1 G1 (Homo sapiens, UniProt O14791, I384M/S342G)
T1 sequence (O14791 28-398 S342G/I384M): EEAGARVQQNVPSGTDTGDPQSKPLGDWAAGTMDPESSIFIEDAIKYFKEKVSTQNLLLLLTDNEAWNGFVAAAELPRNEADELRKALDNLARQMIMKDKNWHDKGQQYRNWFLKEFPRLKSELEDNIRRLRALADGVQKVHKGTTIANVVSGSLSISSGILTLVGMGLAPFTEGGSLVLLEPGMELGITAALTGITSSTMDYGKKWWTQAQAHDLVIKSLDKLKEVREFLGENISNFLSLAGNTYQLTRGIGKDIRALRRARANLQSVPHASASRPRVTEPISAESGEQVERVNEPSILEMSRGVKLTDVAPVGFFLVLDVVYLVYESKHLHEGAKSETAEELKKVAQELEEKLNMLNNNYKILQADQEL
Assay: MultiTox-Fluor Multiplex Cytotoxicity Assay, tet-inducible APOL1 G1 T-REx-HEK293 cells
Type: cell-based
Parameters: expressed in transfected cells; host or cells: T-REx HEK293, clone G1 DC3.25 (pAAVS1-Puro-APOL1 G1)
Conditions: for IC90: read-out: Multi-Tox Assay IC90; for Multi-Tox Assay Max Activity (%) / Emax: APOL1 variant not given; for Emax: read-out: Multi-Tox Assay Max Activity (%)
In short: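 T-REx-HEK293 cells carrying tet-inducible APOL1 G1 induced with 50 ng/mL tet alongside compound (top 10 µM, 10-point 3-fold, duplicate) for 24 h at 37 °C. MultiTox-Fluor dead/live protease fluorescence ratio read after 30 min; normalized to no-tet (100% viability) and tet-treated (0%) controls, then curve-fitted.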

[1] = HEK293, Multi-Tox Assay, APOL1 variant (G0/G1/G2) of the HEK293 cells not given
[2] = Multi-Tox Assay, APOL1 variant (G0/G1/G2) not stated in Table 46

Compound | IC90 [1] [nM] | Multi-Tox Assay Max Activity (%) (Multi-Tox Assay) | IC90 [2] [nM] | Emax (Multi-Tox Assay) [%] | IC50 (Multi-Tox Assay, IP50 = IC50 for cell proliferation, APOL1 variant not stated in Table 46) [nM]
C[C@H]1C[C@@]2(C[C@@H](c3cn(CCCS(C)(=O)=O)nn3)N1)OC[C@@H](O)c1cc(Cl)sc12 [Compound 228] | 50 to 500 | 100.0 | – | – | –
C[C@H]1C[C@@]2(C[C@@H](c3cn(Cc4ccc(O)cc4)nn3)N1)OC[C@@H](O)c1cc(Cl)sc12 [Compound 259] | 50 to 500 | 100.0 | – | – | –
C[C@H]1C[C@@]2(C[C@@H](c3cnccc3O)N1)OCCc1cc(Cl)sc12 (racemic) [Compound 160] | > 500 | 94.3 | – | – | –
Cc1c(Cn2cc([C@@H]3C[C@]4(C[C@H](C)N3)OCC(F)(F)c3cc(Cl)sc34)nn2)cnn1C [Compound 326] | 50 to 500 | 97.0 | – | – | –
CC1COC2(C[C@@H](c3cn(C)nn3)N[C@@H](C)C2)c2cc(Cl)sc21 (single isomer, unassigned) [Compound 12] | < 50 | 99.3 | – | – | –
COC(=O)Cn1cc([C@@H]2C[C@]3(C[C@H](C)N2)OC[C@@H](O)c2cc(Cl)sc23)nn1 [Compound 263] | > 500 | 86.0 | – | – | –
C[C@H]1C[C@@]2(C[C@@H](c3cccc(S(N)(=O)=O)c3)N1)OCCc1cc(Cl)sc12 (racemic) [Compound 147] | > 500 | 92.3 | – | – | –
C[C@H]1C[C@@]2(C[C@@H](c3cn(CC4CCOC4)nn3)N1)OCC(F)(F)c1cc(Cl)sc12 (stereo partly shown) [Compound 311] | 50 to 500 | – | – | – | –
C[C@H]1C[C@@]2(C[C@@H](c3cn(CC4CCS(=O)(=O)C4)nn3)N1)OC[C@@H](O)c1cc(Cl)sc12 (stereo partly shown) [Compound 265] | 50 to 500 | – | – | – | –
C[C@H]1C[C@@]2(C[C@@H](c3cn(CCC(C)(C)O)nn3)N1)OCC(F)(F)c1cc(Cl)sc12 [Compound 367] | – | – | < 50 | – | –
C[C@H]1C[C@@]2(C[C@@H](c3cn(Cc4ncnc5[nH]ccc45)nn3)N1)OCC(F)(F)c1cc(Cl)sc12 [Compound 350] | 50 to 500 | – | – | – | –
C[C@H]1C[C@@]2(C[C@@H](c3cccn4ccnc34)N1)OCCc1cc(Cl)sc12 [Compound 143] | 50 to 500 | 98.0 | – | – | –
C[C@H]1C[C@@]2(C[C@@H](c3ncccc3O)N1)OCCc1cc(Cl)sc12 (racemic) [Compound 172] | > 500 | 52.0 | – | – | –
C[C@H]1C[C@@]2(C[C@@H](c3cnc(-c4cnn(C)c4)nc3)N1)OCCc1cc(Cl)sc12 [Compound 61] | < 50 | – | – | 99.7 | –
C[C@H]1C[C@@]2(C[C@@H](c3cn(CCc4ccncn4)nn3)N1)OC[C@@H](O)c1cc(Cl)sc12 [Compound 262] | 50 to 500 | – | – | – | –
C[C@H]1C[C@@]2(C[C@@H](C3(CO)CC3)N1)OCCc1cc(Cl)sc12 [Compound 380, [1-[(2'S,6'S,7S)-2-chloro-6'-methyl-spiro[4,5-dihydrothieno[2,3-c]pyran-7,4'-piperidine]-2'-yl]cyclopropyl]methanol] | – | – | 50 to 500 | – | –
Cc1cccc(OCC(O)Cn2cc([C@@H]3C[C@]4(C[C@H](C)N3)OCC(F)(F)c3cc(Cl)sc34)nn2)c1 (stereo partly shown) [Compound 303] | 50 to 500 | – | – | – | –
C#C[C@@H]1C[C@]2(C[C@H](C)N1)OCC(F)(F)c1cc(Cl)sc12 [Compound 223, (2'S,6'S,7S)-2-chloro-2'-ethynyl-4,4-difluoro-6'-methyl-spiro[5H-thieno[2,3-c]pyran-7,4'-piperidine]] | > 500 | – | – | 93 | –
C[C@H]1C[C@@]2(C[C@@H](c3cn(CC(=O)N4CCCCC4)nn3)N1)OC[C@@H](O)c1cc(Cl)sc12 [Compound 239] | 50 to 500 | 97.0 | – | – | –
COc1ccc(Cn2cc([C@@H]3C[C@]4(C[C@H](C)N3)OC[C@@H](O)c3cc(Cl)sc34)nn2)cc1 [Compound 295] | 50 to 500 | – | – | – | –
C[C@H]1C[C@@]2(C[C@@H](c3cn(Cc4cnccn4)nn3)N1)OC[C@@H](O)c1cc(Cl)sc12 [Compound 276] | 50 to 500 | 100.0 | – | – | –

Compound | IC90 [1] [nM] | Multi-Tox Assay Max Activity (%) (Multi-Tox Assay) | IC90 [2] [nM] | Emax (Multi-Tox Assay) [%] | IC50 (Multi-Tox Assay, IP50 = IC50 for cell proliferation, APOL1 variant not stated in Table 46) [nM]
C[C@H]1C[C@@]2(C[C@@H](c3cn(Cc4ncnc5[nH]ccc45)nn3)N1)OC[C@@H](O)c1cc(Cl)sc12 [Compound 234] | 50 to 500 | 100.0 | – | – | –
Cc1nc2c([C@@H]3C[C@]4(C[C@H](C)N3)OCCc3cc(Cl)sc34)cccc2o1 (racemic) [Compound 170] | > 500 | 89.7 | – | – | –
C[C@H]1C[C@@]2(C[C@@H](c3cn(Cc4ccccc4S(C)(=O)=O)nn3)N1)OCC(F)(F)c1cc(Cl)sc12 [Compound 347] | 50 to 500 | 96.0 | – | – | –
C[C@H]1C[C@@]2(C[C@@H](c3cn(CC(O)c4ccccc4)nn3)N1)OCC(F)(F)c1cc(Cl)sc12 (stereo partly shown) [Compound 322] | 50 to 500 | 97.0 | – | – | –
C[C@H]1C[C@@]2(C[C@@H](c3cn(C)nn3)N1)OCC(O)(C(F)F)c1cc(Cl)sc12 (single isomer, unassigned) [Compound 184] | 50 to 500 | – | – | 99.3 | –
C[C@H]1C[C@@]2(C[C@@H](c3cn(CCC(N)=O)nn3)N1)OCC(F)(F)c1cc(Cl)sc12 [Compound 328] | 50 to 500 | 100.0 | – | – | –
C[C@H]1C[C@@]2(C[C@@H](c3cnc(NC(C)(C)CO)nc3)N1)OCCc1cc(Cl)sc12 (racemic) [Compound 95] | < 50 | – | – | 99.8 | –
C[C@H]1C[C@@]2(C[C@@H](c3ccc4cn[nH]c4c3)N1)OCCc1cc(Cl)sc12 (racemic) [Compound 67] | < 50 | – | – | 99.7 | –
COc1ccc(C(O)Cn2cc([C@@H]3C[C@]4(C[C@H](C)N3)OCC(F)(F)c3cc(Cl)sc34)nn2)cc1 (stereo partly shown) [Compound 348] | > 500 | 97.0 | – | – | –
Cc1nccnc1[C@@H]1C[C@]2(C[C@H](C)N1)OCCc1cc(Cl)sc12 (racemic) [Compound 164] | > 500 | 91.7 | – | – | –
CC(CO)Cn1cc([C@@H]2C[C@]3(C[C@H](C)N2)OCC(F)(F)c2cc(Cl)sc23)nn1 (stereo partly shown) [Compound 370] | – | – | 50 to 500 | – | 50 to 500
C[C@H]1C[C@@]2(C[C@@H](c3cnc(C(N)=O)cn3)N1)OCCc1cc(Cl)sc12 (racemic) [Compound 63] | < 50 | – | – | 99.8 | –
COCc1cc([C@@H]2C[C@]3(C[C@H](C)N2)OCCc2cc(Cl)sc23)no1 (racemic) [Compound 106] | < 50 | 99.7 | – | – | –
Cc1cc(C)nc(CCn2cc([C@@H]3C[C@]4(C[C@H](C)N3)OCC(F)(F)c3cc(Cl)sc34)nn2)c1 [Compound 351] | 50 to 500 | 98.0 | – | – | –
C[C@H]1C[C@@]2(C[C@@H](c3cn(C)c(=O)n(C)c3=O)N1)OCCc1cc(Cl)sc12 (racemic) [Compound 124] | 50 to 500 | 99.3 | – | – | –
C[C@H]1C[C@@]2(C[C@@H](C3CC3)N1)OCC(O)c1cc(Cl)sc12 (stereo partly drawn) [Compound 220, (2'S,6'S,7S)-2-chloro-2'-cyclopropyl-6'-methyl-spiro[4,5-dihydrothieno[2,3-c]pyran-7,4'-piperidine]-4-ol] | < 50 | – | – | 99.3 | –
C[C@H]1C[C@@]2(C[C@@H](c3cocn3)N1)OCCc1cc(Cl)sc12 (racemic) [Compound 79] | 50 to 500 | – | – | 99.7 | –
CNC(=O)c1ccc(C2CC3(CC(C)N2)OCCc2cc(Cl)sc23)cc1 (stereo not shown) [Compound 41] | < 50 | 99.7 | – | – | –
Cc1nn(C)c2ncc(C3CC4(CC(C)N3)OCCc3cc(Cl)sc34)cc12 (stereo not shown) [Compound 42] | < 50 | 99.7 | – | – | –
Cc1cc(Cn2cc([C@@H]3C[C@]4(C[C@H](C)N3)OC[C@@H](O)c3cc(Cl)sc34)nn2)ccn1 [Compound 296] | 50 to 500 | – | – | – | –
